Measured values from patent US10941157B2, “Pesticidal compositions and uses thereof” (Gilead Apollo, LLC, priority 2015, dated 2021).
Values after ≈ are worked out from the molar mass of the structure shown.

Columns and labels:
Rhizoctonia solani (Rs) = assay: In vitro pathogen growth inhibition assay, Rs (mycelial plugs); type: cell-based; details: ≥90% growth inhibition, mycelial plugs, 48 hours, vs 2% DMSO control; for IC90: Rhizoctonia solani, 48 h, read-out: Compound Concentration (ppm) sufficient for ≥90% inhibition of Rs
Method in brief: (§1)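 Value reported is the compound concentration reaching ≥90% growth inhibition, from OD readings at 24 and 48 h after blank subtraction, confirmed visually. Inoculum was spores diluted in 17% V8 medium, except Rs, using 1.5 mm mycelial plugs in ¼ PDB; actual compound concentration corrected via OD600.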

[1] = tested on: Collectotrichum graminicola (Cg); assay: In vitro pathogen growth inhibition assay, Cg; type: cell-based; details: 48 h, ≥90% growth inhibition; 48 hours; vs 2% DMSO control; read-out: Compound Concentration (ppm) sufficient for ≥90% inhibition of Cg
Method in brief: as §1

Phakopsora pachyrhizi = assay: Foliar protection test for Asian soybean rust control; type: in vivo; details: foliar application to soybean (Glycine max AG4832), percent disease area evaluated 14 days later
[2] = tested on: Blumeria graminis f. sp. hordei; assay: Foliar protection test for barley powdery mildew control; type: in vivo; details: foliar spray on Hordeum vulgare cv. Perry, inoculated 24 hours after treatment, evaluated 7 days later
Experimental: Plants (Hordeum vulgare cv. Perry) were grown for 6 days in 2-inch square pots containing Metromix 200 medium amended with fertilizer. […] After inoculation with the pathogen of Blumeria graminis f. sp. hordei, plants were kept at conditions of 20 to 22° C., 70% relative humidity, and 200 uM of light to facilitate infection and disease development. […] An atomizer was used for applying the solution onto both sides of the leaves until thoroughly wetted. […] At 24 hours after treatment, the plants were moved to a cooler chamber and inoculated by shaking well-colonized, untreated stock plants above the treated plants. This allowed producing a settling cloud of spores and resulting in uniform infection. Efficacy was evaluated in 7 days later by examining leaves for colonization and growth of mildew. Table 4 lists the results of barley powdery mildew control at a compound concentration of 10 ppm or lower.

Sphaerotheca fuliginea = assay: Foliar protection for cucumber powdery mildew control; type: in vivo; details: foliar spray on Cucumis sativus cv. Straight Eight, inoculated 24 hours after treatment, evaluated 7 days later
Experimental: Plants (Cucumis sativus cv. Straight Eight) were grown for 10 days in 2.5-inch square pots containing Metromix 200 medium amended with fertilizer. For propagation, plants were maintained in a growth chamber at conditions of 23 to 27° C., 16 hour light cycle, ambient humidity, and with sub-irrigation as needed. After inoculation with the pathogen of Sphaerotheca fuliginea, plants were kept at conditions of 23 to 27° C., 16 hour light cycle, 60% relative humidity, and with sub-irrigation as needed to facilitate infection and disease development. […] An atomizer was used for applying the solution onto both sides of the leaves until thoroughly wetted. […] At 24 hours after treatment, the plants were moved to a cooler chamber and inoculated by shaking well-colonized, untreated stock plants above the treated plants. This allowed producing a settling cloud of spores and resulting in uniform infection. Inoculated plants were kept near other sporulating stock plants to allow for infection of newly emerging leaves. Efficacy was evaluated in 7 days later by examining leaves for colonization and growth of mildew. Table 5 lists the results of cucumber powdery mildew control at a compound concentration of 10 ppm or lower.

[3] = tested on: Fusarium virguliforme (Fv); assay: In vitro pathogen growth inhibition assay, Fv; type: cell-based; details: ≥90% growth inhibition, 48 hours, vs 2% DMSO control, read-out: Compound Concentration (ppm) sufficient for ≥90% inhibition of Fv
Method in brief: as §1

Fusarium graminearum = type: in vivo; details: spray on flowering Triticum aestivum cv. Samson, inoculated 24 hours after treatment, evaluated 14 days later
Diplodia maydis (Dm) = assay: In vitro pathogen growth inhibition assay, Dm; type: cell-based; details: Stenocarpella maydis, 48 h, ≥90% growth inhibition; 48 hours; vs 2% DMSO control; read-out: Compound Concentration (ppm) sufficient for ≥90% inhibition of Dm
Method in brief: as §1

[4] = tested on: Mycosphaerella graminicola (synthetic Septoria tritici); assay: Foliar protection test for wheat septoria leaf blotch control; type: in vivo; details: foliar spray on Triticum aestivum cv. WinterHawk, inoculated 1 hour after treatment, evaluated 16 days later
[5] = tested on: Fusarium moniliforme (Fm); assay: In vitro pathogen growth inhibition assay, Fm; type: cell-based; details: Fusarium verticillioides; ≥90% growth inhibition; 48 hours; vs 2% DMSO control; read-out: Compound Concentration (ppm) sufficient for ≥90% inhibition of Fm
Method in brief: as §1

Puccinia triticina = assay: Foliar protection test for wheat leaf rust control; type: in vivo; details: foliar application to wheat (Triticum aestivum cv. Winterhawk), evaluated 10 days later
Botrtyis cinerea (Bc) = assay: In vitro pathogen growth inhibition assay, Bc; type: cell-based; details: 48 h, ≥90% growth inhibition; 48 hours; vs 2% DMSO control; read-out: Compound Concentration (ppm) sufficient for ≥90% inhibition of Bc
Method in brief: as §1

[6] = tested on: Phytophthora capsici (Pc); assay: In vitro pathogen growth inhibition assay, Pc; type: cell-based; details: 48 h, ≥90% growth inhibition, 48 hours, vs 2% DMSO control, read-out: Compound Concentration (ppm) sufficient for ≥90% inhibition of Pc
Method in brief: as §1

Septoria tritici (St) = assay: In vitro pathogen growth inhibition assay, St; type: cell-based; details: Zymoseptoria tritici, 48 h, ≥90% growth inhibition; 48 hours; vs 2% DMSO control; read-out: Compound Concentration (ppm) sufficient for ≥90% inhibition of St
Method in brief: as §1

| SMILES | IC90 (Rhizoctonia solani (Rs)) [µg/mL] | IC90 [1] [µg/mL] | Asian Soybean Rust Control at a compound concentration of 25 ppm or lower (Phakopsora pachyrhizi) | Barley Powdery Mildew Control at a compound concentration of 10 ppm or lower [2] | Cucumber Powdery Mildew Control at a compound concentration of 10 ppm or lower (Sphaerotheca fuliginea) | IC90 [3] [µg/mL] | Wheat Fusarium Head Blight Control at a compound concentration of 25 ppm or lower (Fusarium graminearum) | IC90 (Diplodia maydis (Dm)) [µg/mL] | Septoria Leaf Blotch Control at a compound concentration of 25 ppm or lower [4] | IC90 [5] [µg/mL] | Wheat Leaf Rust Control at a compound concentration of 10 ppm or lower (Puccinia triticina) | IC90 (Botrtyis cinerea (Bc)) [µg/mL] | IC90 [6] [µg/mL] | IC90 (Septoria tritici (St)) [µg/mL] | Compound Concentration (ppm) sufficient for ≥90% inhibition of Rs (Rhizoctonia solani (Rs)) [ppm] |
| --- | --- | --- | --- | --- | --- | --- | --- | --- | --- | --- | --- | --- | --- | --- | --- |
| CCOC(=O)c1sc2c(c1C)c(=O)n(C(C)(C)C(=O)NC(C)C)c(=O)n2C[C@H](OCC#N)c1cc(F)ccc1OC [Compound I-251, (R)-ethyl-1-(2-(cyanomethoxy)-2-(5-fluoro-2-methoxyphenyl)ethyl)-3-(1-(isopropylamino)-2-methyl-1-oxopropan-2-yl)-5-methyl-2,4-dioxo-1,2,3,4-tetrahydrothieno[2,3-d]pyrimidine-6-carboxylate] | 0.4 (≈ 0.68 µM) | 2 (≈ 3.4 µM) | C (from 25 to 49% control of Asian soybean rust) | AA (≥85% control of barley powdery mildew) | AA (≥85% control of cucumber powdery mildew) | 0.4 (≈ 0.68 µM) | C (from 25 to 49% control of wheat fusarium head blight) | 2 (≈ 3.4 µM) | C (from 25 to 49% control of wheat septoria leaf blotch) | 0.08 (≈ 0.136 µM) | D (<25% control of wheat leaf rust) | 0.4 (≈ 0.68 µM) | > 50 | > 10 |  |
| COc1ccccc1[C@@H](O)Cn1c(=O)n(C(C)(C)C(=O)NC(C)C)c(=O)c2c(C)c(-n3nccn3)sc21 [Compound I-316, (R)-2-(1-(2-hydroxy-2-(2-methoxyphenyl)ethyl)-5-methyl-2,4-dioxo-6-(2H-1,2,3-triazol-2-yl)-1,4-dihydrothieno[2,3-d]pyrimidin-3 (2H)-yl)-N-isopropyl-2-methylpropanamide] | 0.08 (≈ 0.152 µM) | 2 (≈ 3.8 µM) | A (from 70% to 84% control of Asian soybean rust) | AA (≥85% control of barley powdery mildew) | AA (≥85% control of cucumber powdery mildew) | 0.08 (≈ 0.152 µM) | C (from 25 to 49% control of wheat fusarium head blight) | 2 (≈ 3.8 µM) | A (from 70% to 84% control of wheat septoria leaf blotch) | 0.08 (≈ 0.152 µM) | AA (≥85% control of wheat leaf rust) | 0.4 (≈ 0.76 µM) | ≥ 10 | > 50 |  |
| COc1ccc(F)cc1[C@H](Cn1c(=O)n(C(C)(C)C(=O)NC(C)C)c(=O)c2c(C)c(-n3nccn3)sc21)OC(C)=O [Compound I-323, (R)-1-(5-fluoro-2-methoxyphenyl)-2-(3-(1-(isopropylamino)-2-methyl-1-oxopropan-2-yl)-5-methyl-2,4-dioxo-6-(2H-1,2,3-triazol-2-yl)-3,4-dihydrothieno[2,3-d]pyrimidin-1(2H)-yl)ethyl acetate] | 0.08 | 0.4 | AA (≥85% control of Asian soybean rust) | AA (≥85% control of barley powdery mildew) | AA (≥85% control of cucumber powdery mildew) | 0.08 | C (from 25 to 49% control of wheat fusarium head blight) | ≥ 0.4 | AA (≥85% control of wheat septoria leaf blotch) | 0.08 | AA (≥85% control of wheat leaf rust) | 0.4 | > 50 | > 50 |  |
| COCCO[C@@H](Cn1c(=O)n([C@H](C)C(=O)NC(C)C)c(=O)c2c(C)c(-n3cccn3)sc21)c1cc(F)ccc1OC [Compound I-310, (R)-2-(1-((R)-2-(5-fluoro-2-methoxyphenyl)-2-(2-methoxyethoxy)ethyl)-5-methyl-2,4-dioxo-6-(1H-pyrazol-1-yl)-1,4-dihydrothieno[2,3-d]pyrimidin-3 (2H)-yl)-N-isopropylpropanamide] | 0.08 (≈ 0.136 µM) | 2 (≈ 3.4 µM) | C (from 25 to 49% control of Asian soybean rust) | AA (≥85% control of barley powdery mildew) | AA (≥85% control of cucumber powdery mildew) |  | C (from 25 to 49% control of wheat fusarium head blight) | ≥ 2 | B (from 50 to 69% control of wheat septoria leaf blotch) | 0.08 (≈ 0.136 µM) | C (from 25 to 49% control of wheat leaf rust) | 2 (≈ 3.4 µM) | > 50 | > 50 |  |
| CCOC(=O)c1sc2c(c1C)c(=O)n([C@H](C)C(=O)NC(C)C)c(=O)n2C[C@H](OCCC#N)c1cc(F)ccc1OC [Compound I-220, (R)-ethyl-1-(2-(2-cyanoethoxy)-2-(5-fluoro-2-methoxyphenyl)ethyl)-3-((R)-1-(isopropylamino)-1-oxopropan-2-yl)-5-methyl-2,4-dioxo-1,2,3,4-tetrahydrothieno[2,3-d]pyrimidine-6-carboxylate] |  |  | B (from 50 to 69% control of Asian soybean rust) | AA (≥85% control of barley powdery mildew) | AA (≥85% control of cucumber powdery mildew) | 0.4 (≈ 0.68 µM) | C (from 25 to 49% control of wheat fusarium head blight) |  | B (from 50 to 69% control of wheat septoria leaf blotch) | 0.08 (≈ 0.136 µM) | C (from 25 to 49% control of wheat leaf rust) |  |  | > 50 | 0.08 |
